In patent US10844002B2, “Lipids and lipid compositions for the delivery of active agents” (priority 2014, dated 2020):
Several values for one entry are separate records, joined by “and”; a condition that tells them apart may be missing. Equal values may be shown once.

How the values were obtained:
[1] = test system: H1N1 influenza A strain, Ca107; assay: Immunogenicity in ferret models (Influenza): haemagultanin inhibition (HAI) titers; assay type: in vivo, ferrets; conditions: IM
Experimental: (§1) For immunization in ferrets, a lipid working solution was freshly prepared by dissolving 22.5 mg of Example 1, 5.9 mg of DSPC, 13.9 mg of Cholesterol and 4.0 mg of PEG2000-conjugated DMPE (cat #880150P, Avanti Polar Lipids, Inc.) in 10 ml ethanol. A 10 mL working solution of RNA was also prepared at a concentration of 0.125 mg/ml in 100 mM citrate buffer (pH 6). The working lipid and RNA solutions were heated at 37° C. for 5 min before being loaded into two 10 cc luer-lok syringes. […] The outlet from the T mixer was also FEP tubing separately, 10 mL of citrate buffer (pH 6) was loaded in a third 10 cc syringe which was connected to a separate piece of tubing. All three syringes were loaded on a syringe pump and driven at 1.0 ml/min. The tubing outlets were positioned to collect the mixtures in a 20 mL glass vial which was gently stirred using a stirring bar. All glass vials were baked at 250° C. for 12 hours prior to experiment to completely inactivate any RNase contaminant. At the end of mixing, the stir bar was taken out and the ethanol/aqueous solution was allowed to equilibrate to room temperature for 1 hour. After incubation, the ethanol/aqueous solution was loaded into a syringe, and mixed with equal volume of 100 mM citrate buffer (pH 6) using the aforementioned Tee-junction process. Next, LNPs were concentrated to 20 mL and dialyzed against 10-15 volumes of 1× PBS using by tangential flow filtration before recovering the final product. The TFF system and hollow fiber filtration membranes were purchased from Spectrum Labs (Rancho Dominguez) and were used according to the manufacturer's guidelines. Polysulfone hollow fiber filtration membranes with a 100 kD pore size cutoff and 8 cm^2 surface area were used. For in vitro and in vivo experiments formulations were diluted to the required RNA concentration with 1×. PBS.
(§2) A total of seven experimental groups with six animals per group (42 animals) were used in this study; two vaccine doses of each RNA formulation (Groups 2-5), two groups vaccinated with a non-adjuvated (H1N1 subunit) or an adjuvated (MF59/H1N1 subunit) commercially available H1N1 influenza subunit vaccine (Groups 6 and 7) and a mock vaccinated group (Group 1). The RNA test vaccines were derived from a recombinant DNA plasmid (pDNA) carrying an alphavirus genome in which the structural genes were replaced with the HA gene from the H1N1 influenza A strain, Ca107. The RNA was then formulated in either cationic oil-in-water emulsion (CNE) or LNP for delivery to host cells via intramuscular (IM) injection. RNA concentrations for each formulation study group were 15 and 45 mcg for CNE and 5 and 15 mcg for LNP. The H1N1 subunit vaccines were used at a HA subunit protein concentration of 15 mcg. Non-vaccinated animals were mock vaccinated with a vehicle control for the RNA test vaccines. All test vaccines were administered by IM injection on Study Days (SD) 0 followed with a booster vaccination on Study Day 56 (8 weeks post 1st immunization).
(§3) Table 5 summarizes Influenza microneutralization data and table 6 the haemagultanin inhibition (HAI) titers. The LNP formulation tested generated immune responses with as little as 5 μg of self-amplifying RNA, as determined by increased HA-specific neutralization and HAI titers.

[2] = Characterization of LNP formulations: Z average particle diameter and polydispersity index; assay type: physicochemical; conditions: LNP formulation
Description: The lipid nanoparticles have a size of about 1 to about 2,500 nm, about 1 to about 1,500 nm, about 1 to about 1,000 nm, in a sub-embodiment about 50 to about 600 nm, in a sub-embodiment about 50 to about 400 nm, in a sub-embodiment about 50 to about 250 nm, and in a sub-embodiment about 50 to about 150 nm. Unless indicated otherwise, all sizes referred to herein are the average sizes (diameters) of the fully formed nanoparticle, as measured by dynamic light scattering on a Malvern Zetasizer. The nanoparticle sample is diluted in phosphate buffered saline (PBS) so that the count rate is approximately 200-400 kcts. The data is presented as a weighted average of the intensity measure.

RSV F protein = assay type: in vivo; conditions: Table 4; BALB/c mice, intramuscular, 1 ng vA375 replicon in LNP, days 0 and 21
[3] = test system: H1N1 influenza A strain, Ca107; assay: Immunogenicity in ferret models (Influenza): microneutralization; assay type: in vivo, ferrets; conditions: IM
Experimental: as §1, §2, §3

[4] = Encapsulation efficiency of RNA replicons (Quant-iT RiboGreen); assay type: physicochemical; conditions: LNP 40% cationic lipid, 10% DSPC, 48% cholesterol, 2% PEG-DMG; RNA replicon
Experimental: Briefly, lipids were dissolved in ethanol (2m1), a RNA replicon was dissolved in buffer (2 ml, 100 mM sodium citrate, pH 6) and these were mixed with 2 ml of buffer followed by 1 hour of equilibration. The mixture was then dialized overnight against 1×PBS. The resulting product contained liposomes, with ˜70-95% encapsulation efficiency.
The percentage of encapsulated RNA and RNA concentration were determined by Quant-iT RiboGreen RNA reagent kit (Invitrogen), following manufacturer's instructions. The ribosomal RNA standard provided in the kit was used to generate a standard curve. LNPs were diluted 10× or 100× in 1× TE buffer (from kit) before addition of the dye. Separately, LNPs were diluted 10× or 100× in 1× TE buffer containing 0.5% Triton X before addition of the dye (to disrupt the LNPs and thus to assay total RNA). Thereafter an equal amount of dye was added to each solution and then ˜180 μL of each solution after dye addition was loaded in duplicate into a 96 well tissue culture plate. The fluorescence (Ex 485 nm, Em 528 nm) was read on a microplate reader. All LNP formulations were dosed in vivo based on the encapsulated amount of RNA.

[5] = 5 mcg RNA, Pre-bleed, per animal
[6] = 15 mcg RNA, Pre-bleed, per animal

With CCCCC/C=C\C/C=C\CCCCCCCCOc1ccc(OCCCCCCCC/C=C\C/C=C\CCCCC)c(COC(=O)CCCN(C)C)c1 [Example 1, 2,5-bis((9Z,12Z)-octadeca-9,12-dien-1-yloxy)benzyl 4-(dimethylamino)butanoate] the “Influenza HAI titer” value ([1]; 5 mcg RNA, 4wp1, per animal) was 20 (2×) and 80 and 40 (2×) and 10, the “Influenza HAI titer” value ([1]; 5 mcg RNA, 4wp2, per animal) was 640 (2×) and >20480 (3×) and 320 and the “Influenza HAI titer” value ([1]; 5 mcg RNA, 8wp1, per animal) was 20 (2×) and 40 (2×) and 10 and <10. The “Influenza HAI titer” value [1, 5] was under 10, the “Influenza HAI titer” value ([1]; 15 mcg RNA, 4wp1, per animal) was 160 (2×) and 320 and 80 (2×) and 40 and the “Influenza HAI titer” value ([1]; 15 mcg RNA, 4wp2, per animal) was 640 (4×) and >20480 (2×). For the same compound, the “Influenza HAI titer” value ([1]; 15 mcg RNA, 8wp1, per animal) was 40 (3×) and 80 (2×) and 20, the “Influenza HAI titer” value [1, 6] was under 10 and the “Zav (nm)” value ([2]; Z average particle diameter) was 135.3 nm. For the same compound, the polydispersity ([2]; polydispersity index) was 0.11, the “Log10(IgG titer), 1 ng RNA (RSV-F), 2 weeks post 2nd immunization” value (RSV F protein) was 4.43 and the Influenza microneutralization titer ([3]; 5 mcg RNA, 4wp1, per animal) was 20 (2×) and 80 and 40 (2×) and 10. The Influenza microneutralization titer ([3]; 5 mcg RNA, 4wp2, per animal) was 640 (2×) and >20480 (3×) and 320, the Influenza microneutralization titer ([3]; 5 mcg RNA, 8wp1, per animal) was 20 (2×) and 40 (2×) and 10 and <10 and the Influenza microneutralization titer [3, 5] was under 10. The Influenza microneutralization titer ([3]; 15 mcg RNA, 4wp1, per animal) was 160 (2×) and 320 and 80 (2×) and 40, the Influenza microneutralization titer ([3]; 15 mcg RNA, 4wp2, per animal) was 640 (4×) and >20480 (2×) and the Influenza microneutralization titer ([3]; 15 mcg RNA, 8wp1, per animal) was 40 (3×) and 80 (2×) and 20. For the same compound, the Influenza microneutralization titer [3, 6] was under 10 and the “Encapsulation efficiency (RNA %)” value [4] was 96.6%.
